Earlier results on 1 compound are cited in US20220079967A1, “COMPOSITION FOR IMPROVING VASCULAR ENDOTHELIAL FUNCTION” (SAN-EI GEN F.F.I., INC., priority 2019, published 2022).

This data set concerns endothelial function and blood pressure. The conditions noted are these: administered to human, also with increased dosage (Bondonno et al. 2016).

Consider `O=c1c(O[C@@H]2O[C@H](CO)[C@@H](O)[C@H](O)[C@H]2O)c(-c2ccc(O)c(O)c2)oc2cc(O)cc(O)c12` [isoquercitrin], for which the “effect on FMD value” is on record as “does not affect” and the “effect on blood pressure” value is reported as “does not affect”.
